Test results reported in patent US11427869B2, “T cell balance gene expression, compositions of matters and methods of use thereof” (THE BROAD INSTITUTE, INC., priority 2015, dated 2022).

What was measured:
Format in all cases: cell-based, mouse
Th17 cells [1] = assay: Flow cytometry and intracellular cytokine staining of T cells
Method: WT, CD5L−/− and Rorγt−/− Th17 cells were differentiated with TGF-1+IL-6 for 96h. […] Three independent experiments were performed. […] (FIG. 18E) Naïve WT T cells were activated without polarizing cytokines (Th0) and infected with retrovirus expressing Rorγt in the presence of control-RV or CD5L-RV with or without FF-MAS (5 uM) as a source of Rorγt ligand. Each dot represents an independent infection. (FIG. 18F) WT or CD5L−/− naïve cells were differentiated with TGF-β1+IL-6. At 48h, cells were replated in fresh media with either control or FF-MAS (5 uM) as a source of Rorγt ligand. Cells were harvested for FACS analysis 72h later.
Flow cytometry and intracellular cytokine staining. Sorted naïve T cells were stimulated with phorbol 12-myristate 13-acetate (PMA) (50 ng/ml, Sigma-aldrich), ionomycin (1 μg/ml, Sigma-aldrich) and a protein transport inhibitor containing monensin (Golgistop) (BD Biosciences) for 4 h before detection by staining with antibodies.

WT Th17 cells = assay: Nanostring nCounter Th17 codeset (312 genes), SFA- or control-treated WT Th17 cells; conditions: WT Th17 cells + SFA
From the text: Applicants studied the contribution of lipid saturation to Th17 cell pathogenicity. […] Applicants analyzed the expression of a 312 gene signature of Th17 cell differentiation and function (Yosef et al., 2013) in SFA- or control-treated WT Th17 cells and in PUFA- or control-treated CD5L−/− Th17 cells differentiated with TGF-81+IL-6.
T cell differentiation culture. Naïve CD4+CD44−CD62L+CD25− T cells or Effector memory CD4+CD44+CD62L− were sorted using BD FACSAria sorter and activated with plate-bound anti-CD3 and anti-CD28 antibodies (both at 2 μg/ml) in the presence of cytokines at a concentration of 2.5×10^5 cells/ml. For Th17 differentiation: 2 ng/ml of rhTGFβ1, 2 ng/ml of rhTGFβ3, 25 ng/ml rmIL-6, 20 ng/ml rmIL-18 (all from Miltenyi Biotec) and 20 ng/ml rmIL-23 (R & D systems) were used at various combinations as specified in figures. For Th1 differentiation, 20 ng/ml rmIL-12 (R & D systems); for Th2 differentiation 20 ng/ml rmIL-4 (Miltenyi Biotec); for iTreg differentiation, 2.5 ng/ml of rhTGFβ1 were used (Miltenyi Biotec). For differentiation experiments, cells were harvested at 48 hours. For restimulation experiments, cells were differentiated for 48 hours and resuspended in fresh media with no additional cytokines for 48-72 hours. Cells were re-stimulated with PMA/ionomycin for four hours before analysis for cytokines by intracellular cytokine staining. For experiments with exogenous fatty acid, fatty acids were purchased and resuspended first with serum-free media containing BSA prior being added to culture.
Nanostring nCounter. Nanostring nCounter platform (NanoString Technologies) is used to measure the number of RNA transcripts in RNA samples (FIG. 16I, FIG. 18D). A codeset containing 312 signature genes of Th17 cell differentiation and function as well as 4 additional house-keeping genes were custom-made (Yosef et al., 2013) and used in these experiments. Experimental procedures as detailed by the manufacturer is strictly followed.

Th17 cells [2] = assay: qPCR of gene expression (cyp51, sc4mol, pathogenicity signature) in Th17 cells with exogenous fatty acid
[3] = Th17 cells differentiated with TGF-β1+IL-6

## CC(C)=CCC[C@@H](C)[C@H]1CC=C2C3=C(CC[C@@]21C)[C@@]1(C)CC[C@H](O)C(C)(C)[C@@H]1CC3 [Rorγt ligand, FF-MAS]
Th17 cells [1]; Th0 cells with ectopic Rorγt expression and CD5L-RV, FF-MAS 5 uM
  IL-17 expression: partially rescued
Th17 cells [1]; non-pathogenic Th17 cells (TGF-β1+IL-6), ligand (FF-MAS 5 uM) added at 48h, FACS 72h later
  IL-17 production: increased IL-17 production

## CCCCCCCCCCCCCCCC(=O)O [SFA, palmitic acid]
WT Th17 cells
  ATF2 expression (Nanostring), normalized to WT: 1.18
  Abcg2 expression (Nanostring), normalized to WT: 0.77
  Acvr2a expression (Nanostring), normalized to WT: 0.66
  Ahr expression (Nanostring), normalized to WT: 0.83
  Arl5a expression (Nanostring), normalized to WT: 0.93
  Atf4 expression (Nanostring), normalized to WT: 1.11
  BC021614 expression (Nanostring), normalized to WT: 0.96
  Bcl2l11 expression (Nanostring), normalized to WT: 0.82
  Bcl3 expression (Nanostring), normalized to WT: 0.85
  Bcl11b expression (Nanostring), normalized to WT: 0.82
  Bhlhe40 expression (Nanostring), normalized to WT: 1.22
  Casp3 expression (Nanostring), normalized to WT: 1.21
  Casp4 expression (Nanostring), normalized to WT: 0.95
  Ccl1 expression (Nanostring), normalized to WT: 0.58
  Ccl20 expression (Nanostring), normalized to WT: 0.31
  Ccr4 expression (Nanostring), normalized to WT: 0.61
  Ccr8 expression (Nanostring), normalized to WT: 0.74
  Cd9 expression (Nanostring), normalized to WT: 0.84
  Cd70 expression (Nanostring), normalized to WT: 0.89
  Cd83 expression (Nanostring), normalized to WT: 1.23
  Cd86 expression (Nanostring), normalized to WT: 0.99
  Cd247 expression (Nanostring), normalized to WT: 0.81
  Clcf1 expression (Nanostring), normalized to WT: 0.74
  Csf2 expression (Nanostring), normalized to WT: 0.97
  Ctla4 expression (Nanostring), normalized to WT: 0.81
  Cxcl10 expression (Nanostring), normalized to WT: 3.83
  Cxcr3 expression (Nanostring), normalized to WT: 0.48
  Cxcr4 expression (Nanostring), normalized to WT: 1.00
  Cxcr5 expression (Nanostring), normalized to WT: 1.17
  EBF1 expression (Nanostring), normalized to WT: 0.51
  Egr2 expression (Nanostring), normalized to WT: 1.53
  Elk3 expression (Nanostring), normalized to WT: 0.58
  Ercc5 expression (Nanostring), normalized to WT: 0.90
  Etv6 expression (Nanostring), normalized to WT: 0.94
  Faim3 expression (Nanostring), normalized to WT: 0.61
  Fli1 expression (Nanostring), normalized to WT: 0.84
  Flna expression (Nanostring), normalized to WT: 0.65
  Foxo1 expression (Nanostring), normalized to WT: 0.79
  Foxp1 expression (Nanostring), normalized to WT: 0.77
  Foxp3 expression (Nanostring), normalized to WT: 0.71
  Frmd4b expression (Nanostring), normalized to WT: 1.05
  Fxd7 expression (Nanostring), normalized to WT: 1.07
  Gap43 expression (Nanostring), normalized to WT: 1.30
  Gem expression (Nanostring), normalized to WT: 1.00
  Gimap5 expression (Nanostring), normalized to WT: 1.05
  Gja1 expression (Nanostring), normalized to WT: 0.94
  Gmfg expression (Nanostring), normalized to WT: 0.62
  Grn expression (Nanostring), normalized to WT: 0.78
  Gusb expression (Nanostring), normalized to WT: 1.02
  Hip1r expression (Nanostring), normalized to WT: 0.70
  IL-33 expression (Nanostring), normalized to WT: 1.33
  Ifih1 expression (Nanostring), normalized to WT: 0.87
  Ifng expression (Nanostring), normalized to WT: 0.55
  Ikzf3 expression (Nanostring), normalized to WT: 0.82
  Il1r1 expression (Nanostring), normalized to WT: 0.61
  Il2ra expression (Nanostring), normalized to WT: 0.71
  Il3 expression (Nanostring), normalized to WT: 2.11
  Il4ra expression (Nanostring), normalized to WT: 0.75
  Il6st expression (Nanostring), normalized to WT: 0.87
  Il7r expression (Nanostring), normalized to WT: 0.85
  Il10 expression (Nanostring), normalized to WT: 0.12
  Il10ra expression (Nanostring), normalized to WT: 0.71
  Il12rb1 expression (Nanostring), normalized to WT: 0.39
  Il12rb2 expression (Nanostring), normalized to WT: 0.88
  Il17a expression (Nanostring), normalized to WT: 0.96
  Il17f expression (Nanostring), normalized to WT: 0.90
  Il21 expression (Nanostring), normalized to WT: 1.64
  Il23r expression (Nanostring), normalized to WT: 1.12
  Il27ra expression (Nanostring), normalized to WT: 0.70
  Inhba expression (Nanostring), normalized to WT: 0.60
  Irf4 expression (Nanostring), normalized to WT: 0.68
  Irf7 expression (Nanostring), normalized to WT: 0.54
  Irf8 expression (Nanostring), normalized to WT: 0.99
  Itga3 expression (Nanostring), normalized to WT: 0.50
  Jak3 expression (Nanostring), normalized to WT: 0.91
  Jun expression (Nanostring), normalized to WT: 1.11
  Kat2b expression (Nanostring), normalized to WT: 0.69
  Klf9 expression (Nanostring), normalized to WT: 0.68
  Klf10 expression (Nanostring), normalized to WT: 0.91
  Klrd1 expression (Nanostring), normalized to WT: 0.92
  Lad1 expression (Nanostring), normalized to WT: 0.91
  Lgals3bp expression (Nanostring), normalized to WT: 0.58
  Litaf expression (Nanostring), normalized to WT: 1.48
  Lpxn expression (Nanostring), normalized to WT: 0.85
  Maf expression (Nanostring), normalized to WT: 0.79
  Maff expression (Nanostring), normalized to WT: 0.99
  Map3k5 expression (Nanostring), normalized to WT: 0.80
  Mbnl3 expression (Nanostring), normalized to WT: 0.71
  Mina expression (Nanostring), normalized to WT: 0.72
  Mt1 expression (Nanostring), normalized to WT: 1.56
  Mt2 expression (Nanostring), normalized to WT: 1.33
  Nfkbie expression (Nanostring), normalized to WT: 0.69
  Nkg7 expression (Nanostring), normalized to WT: 0.62
  Notch2 expression (Nanostring), normalized to WT: 0.78
  Oas2 expression (Nanostring), normalized to WT: 1.28
  Peli2 expression (Nanostring), normalized to WT: 0.88
  Plac8 expression (Nanostring), normalized to WT: 1.04
  Plagl1 expression (Nanostring), normalized to WT: 2.19
  Pmepa1 expression (Nanostring), normalized to WT: 0.74
  Pou2af1 expression (Nanostring), normalized to WT: 1.30
  Prkd3 expression (Nanostring), normalized to WT: 0.73
  Pstpip1 expression (Nanostring), normalized to WT: 1.16
  Rab33a expression (Nanostring), normalized to WT: 1.23
  Rasgrp1 expression (Nanostring), normalized to WT: 0.75
  Rel expression (Nanostring), normalized to WT: 1.20
  Rela expression (Nanostring), normalized to WT: 0.70
  Rfk expression (Nanostring), normalized to WT: 0.79
  Rorc expression (Nanostring), normalized to WT: 1.25
  Sap30 expression (Nanostring), normalized to WT: 1.23
  Sema7a expression (Nanostring), normalized to WT: 1.44
  Serpinb1a expression (Nanostring), normalized to WT: 0.56
  Ski expression (Nanostring), normalized to WT: 0.88
  Slc6a6 expression (Nanostring), normalized to WT: 0.79
  Smad3 expression (Nanostring), normalized to WT: 0.81
  Socs3 expression (Nanostring), normalized to WT: 0.78
  Spp1 expression (Nanostring), normalized to WT: 1.10
  Spry1 expression (Nanostring), normalized to WT: 1.57
  Stat4 expression (Nanostring), normalized to WT: 0.77
  Stat5b expression (Nanostring), normalized to WT: 0.82
  Stat6 expression (Nanostring), normalized to WT: 0.73
  Sult2b1 expression (Nanostring), normalized to WT: 0.38
  Tal2 expression (Nanostring), normalized to WT: 1.15
  Tcf4 expression (Nanostring), normalized to WT: 0.72
  Tgfb1 expression (Nanostring), normalized to WT: 0.83
  Tgfb3 expression (Nanostring), normalized to WT: 0.88
  Tgfbr3 expression (Nanostring), normalized to WT: 0.58
  Tgm2 expression (Nanostring), normalized to WT: 0.78
  Tmem229b expression (Nanostring), normalized to WT: 0.69
  Tnfrsf4 expression (Nanostring), normalized to WT: 1.28
  Tnip2 expression (Nanostring), normalized to WT: 0.90
  Trat1 expression (Nanostring), normalized to WT: 0.61
  Trim25 expression (Nanostring), normalized to WT: 0.89
  Trps1 expression (Nanostring), normalized to WT: 0.84
  Tsc22d3 expression (Nanostring), normalized to WT: 1.06
  Ubiad1 expression (Nanostring), normalized to WT: 0.94
  Vav3 expression (Nanostring), normalized to WT: 0.56
  Xrcc5 expression (Nanostring), normalized to WT: 0.93
  nrp1 expression (Nanostring), normalized to WT: 0.74
  pou2f1 expression (Nanostring), normalized to WT: 1.34
Th17 cells [2]; CD5L−/− Th17 cells (TGF-β1+IL-6), fatty acid 25 uM added at 48h, analyzed at 96h
  expression of cyp51 and sc4mol mRNA: modest effect
Th17 cells [2]; [3]
  Il22 expression (qPCR): increased
  effector molecule expression of the pathogenicity signature (Il10, Il23r, Ccl5, Csf2, Lag3; qPCR): reciprocally regulated
Th17 cells [1]; WT Th17 cells differentiated with TGF-β1+IL-6 and expanded using IL-23 with fatty acid
  IL-17 and IL-23R expression: only slightly increased
